Test results: patent US9187471B2, “Pyrido [4,3-b] indole and pyrido [3,4-b] indole derivatives and methods of use” (Medivation Technologies, Inc., priority 2010, dated 2015)

Legend:
[1] = biological target: T1, rat adrenergic α1A receptor (Rattus norvegicus, UniProt P43140); test: Adrenergic α1A radioligand binding ([3H]Prazosin); conditions: read-out: Adrenergic (0.1 μM) a1A, percent inhibition of specific binding; compound at 0.1 μM; 0.25 nM [3H]Prazosin
T1 construct: rat adrenergic α1A receptor obtained from Wistar Rat submaxillary glands; from tissue; host or cells: Wistar rat submaxillary glands
T1 sequence (P43140 1-466): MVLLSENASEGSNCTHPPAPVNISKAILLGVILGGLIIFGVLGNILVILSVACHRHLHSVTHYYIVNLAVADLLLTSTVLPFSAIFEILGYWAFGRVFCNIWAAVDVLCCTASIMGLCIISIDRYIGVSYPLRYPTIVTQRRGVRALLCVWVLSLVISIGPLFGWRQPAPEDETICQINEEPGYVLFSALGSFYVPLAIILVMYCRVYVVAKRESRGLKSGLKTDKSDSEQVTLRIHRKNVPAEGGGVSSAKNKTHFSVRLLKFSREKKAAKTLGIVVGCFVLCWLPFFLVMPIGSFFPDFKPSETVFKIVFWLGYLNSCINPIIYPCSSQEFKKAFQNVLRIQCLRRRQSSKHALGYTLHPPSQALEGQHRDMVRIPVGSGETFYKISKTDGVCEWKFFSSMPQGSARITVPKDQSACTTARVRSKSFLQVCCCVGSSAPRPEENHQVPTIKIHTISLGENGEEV
Summary of the method: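 Wistar rat submaxillary gland receptor in 50 mM Tris-HCl pH 7.4 with 0.5 mM EDTA, incubated with compound and 0.25 nM [3H]Prazosin for 60 min at 25 °C.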

[2] = biological target: T2, Adrenergic α1B (Rattus norvegicus, UniProt P15823); test: Adrenergic α1B radioligand binding ([3H]Prazosin); conditions: read-out: Adrenergic (0.1 μM) a1B, percent inhibition of specific binding; compound at 0.1 μM; 0.25 nM [3H]Prazosin; Wistar Rat liver
T2 construct: rat adrenergic α1D receptor obtained from Wistar Rat liver; from tissue; host or cells: Wistar rat liver
T2 sequence (P15823 1-515): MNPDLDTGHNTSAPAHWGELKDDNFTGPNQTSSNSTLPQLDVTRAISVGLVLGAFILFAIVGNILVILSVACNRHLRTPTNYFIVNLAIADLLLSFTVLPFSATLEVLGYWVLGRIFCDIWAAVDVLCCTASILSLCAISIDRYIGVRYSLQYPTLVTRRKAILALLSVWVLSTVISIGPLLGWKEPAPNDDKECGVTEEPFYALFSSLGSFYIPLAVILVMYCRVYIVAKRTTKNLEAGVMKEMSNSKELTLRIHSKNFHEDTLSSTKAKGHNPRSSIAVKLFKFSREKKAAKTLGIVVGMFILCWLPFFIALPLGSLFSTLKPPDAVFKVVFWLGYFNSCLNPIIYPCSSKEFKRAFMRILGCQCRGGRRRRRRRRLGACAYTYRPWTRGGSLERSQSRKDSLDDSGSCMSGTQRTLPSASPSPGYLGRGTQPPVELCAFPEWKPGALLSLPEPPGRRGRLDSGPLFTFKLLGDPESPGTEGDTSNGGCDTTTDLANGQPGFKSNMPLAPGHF
Protocol: To evaluate in radioligand binding assays the activity of compounds of the invention, rat adrenergic α1D receptor obtained from Wistar Rat liver (Garcia-S'ainz, J. et al, Biochem. Biophys. Res. Commun. 186:760, 1992; Michel, A. et al, Br. J. Pharmacol. 98:883, 1989) in a modified Tris-HCl buffer (50 mM Tris-HCl buffer, pH 7.4, 0.5 mM EDTA) was used. Compounds of the invention were incubated with 0.25 nM [^3H]Prazosin for 60 min at 25° C. Non-specific binding was estimated in the presence of 10 μM phentolamine Receptor proteins were filtered and washed, the filters were then counted to determine [^3H]Prazosin specifically bound. […] Compounds of the invention were tested in this biochemical assay and percent inhibition of specific binding was determined.

[3] = biological target: T3, human recombinant adrenergic α2A receptor (Homo sapiens, UniProt P08913); test: Adrenergic α2A radioligand binding ([3H]MK-912); conditions: read-out: Adrenergic (0.1 μM) a2A, percent inhibition of specific binding; compound at 0.1 μM; 1 nM [3H]MK-912
T3 construct: expressed in transfected cells; host or cells: insect Sf9 cells
T3 sequence (P08913 1-465): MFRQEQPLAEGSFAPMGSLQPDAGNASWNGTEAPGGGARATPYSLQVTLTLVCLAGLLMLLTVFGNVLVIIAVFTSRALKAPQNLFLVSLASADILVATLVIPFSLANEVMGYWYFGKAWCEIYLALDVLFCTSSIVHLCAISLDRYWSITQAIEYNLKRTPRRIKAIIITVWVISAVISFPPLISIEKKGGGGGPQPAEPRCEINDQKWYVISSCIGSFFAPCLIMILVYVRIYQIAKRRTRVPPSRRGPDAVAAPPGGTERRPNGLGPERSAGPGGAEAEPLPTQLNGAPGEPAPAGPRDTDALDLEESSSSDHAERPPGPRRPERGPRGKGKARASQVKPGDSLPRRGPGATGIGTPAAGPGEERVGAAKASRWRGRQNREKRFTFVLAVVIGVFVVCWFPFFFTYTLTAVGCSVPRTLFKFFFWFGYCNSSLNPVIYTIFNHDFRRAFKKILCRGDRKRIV
Protocol: To evaluate in radioligand binding assays the activity of compounds of the invention, human recombinant adrenergic α2A receptor expressed in insect Sf9 cells (Uhlen, S. et al, J. Pharmacol. Exp. Ther. 271:1558, 1994) in a modified Tris-HCl buffer (50 mM Tris-HCl, pH 7.4, 12.5 mM MgCl2, 2 mM EDTA) was used. Compounds of invention were incubated with 1 nM [^3H]MK-912 for 60 min at 25° C. MK-912 is (2S-trans)-1,3,4,5′,6,6′,7,12b-octahydro-1′,3′-dimethyl-spiro[2H-benzofuro[2,3-a]quinolizine-2,4′(1′H)-pyrimidin]-2′(3′H)-one hydrochloride Non-specific binding was estimated in the presence of 10 μM WB-4101 (2-(2,6-Dimethoxyphenoxyethyl)aminomethyl-1,4-benzodioxane hydrochloride). Receptor proteins were filtered and washed, the filters were then counted to determine [^3H]MK-912 specifically bound. […] Compounds of the invention were tested in this biochemical assay and percent inhibition of specific binding was determined.

| SMILES | inhibition at 0.1 µM [1] [%] | inhibition at 0.1 µM [2] [%] | inhibition at 0.1 µM [3] [%] |
| --- | --- | --- | --- |
| Cc1ccc2c(c1)c1c(n2-c2ccccc2-c2cn[nH]c2)CCN(C)C1 [Compound No. 104, 5-(2-(1H-pyrazol-4-yl)phenyl)-2,8-dimethyl-2,3,4,5-tetrahydro-1H-pyrido[4,3-b]indole] | 4 | 9 | 14 |
| Cc1ccc2c(c1)c1c(n2-c2ccccc2-c2sccc2C)CCN(C)C1 [Compound No. 102, 2,8-dimethyl-5-(2-(3-methylthiophen-2-yl)phenyl)-2,3,4,5-tetrahydro-1H-pyrido[4,3-b]indole] | 28 |  |  |
| Cc1ccc2c(c1)c1c(n2-c2ccccc2-c2cccc3[nH]ncc23)CCN(C)C1 [Compound No. 105, 5-(2-(1H-indazol-4-yl)phenyl)-2,8-dimethyl-2,3,4,5-tetrahydro-1H-pyrido[4,3-b]indole] | 55 |  |  |
| Cc1ccc2c(c1)c1c(n2-c2ccccc2-c2cnn(C)c2)CCN(C)C1 [Compound No. 86, 2,8-dimethyl-5-(2-(1-methyl-1H-pyrazol-4-yl)phenyl)-2,3,4,5-tetrahydro-1H-pyrido[4,3-b]indole] | 17 |  |  |
| Cc1ccc2c(c1)c1c(n2-c2ccccc2-c2cncc3ccccc23)CCN(C)C1 [Compound No. 87, 5-(2-(isoquinolin-4-yl)phenyl)-2,8-dimethyl-2,3,4,5-tetrahydro-1H-pyrido[4,3-b]indole] | 8 |  |  |
| Cc1ccc2c(c1)c1c(n2-c2ccccc2-c2cc3ccccc3s2)CCN(C)C1 [Compound No. 103, 5-(2-(benzo[b]thiophen-2-yl)phenyl)-2,8-dimethyl-2,3,4,5-tetrahydro-1H-pyrido[4,3-b]indole] | 44 |  |  |
| Cc1ccc2c(c1)c1c(n2-c2cnc3ccccc3c2)CCN(C)C1 [Compound No. 88, 2,8-dimethyl-5-quinolin-3-yl-2,3,4,5-tetrahydro-1H-pyrido[4,3-b]indole] | 20 |  |  |
| Cc1ccc2c(c1)c1c(n2-c2ccccc2-c2cccn2C)CCN(C)C1 [Compound No. 100, 2,8-dimethyl-5-(2-(1-methyl-1H-pyrrol-2-yl)phenyl)-2,3,4,5-tetrahydro-1H-pyrido[4,3-b]indole] | 46 |  | 95 |
